Earlier results as cited in patent US8747898B2, “Controlled release oral dosage form” (Andrx Pharmaceuticals, LLC, priority 1999, dated 2014).
Counter-ions that a name gives are not always drawn.

How the values were obtained:
monoamine oxidase = conditions: in words
norepinephrine uptake = conditions: in words
[1] = in words
[2] = in words; remark: listed apart in the source

## CC(NC(C)(C)C)C(=O)c1cccc(Cl)c1 (stereo not drawn) [bupropion]
Monoamine oxidase
  inhibition of monoamine oxidase: does not inhibit
Following single doses
  terminal T ½: about 14 hours
two-compartment model
  mean half-life of distributive phase: 3 to 4 h
Norepinephrine uptake
  blockade of norepinephrine uptake: weak blocker

## CC(NC(C)(C)C)C(=O)c1cccc(Cl)c1 (stereo not drawn) [Bupropion hydrochloride, bupropion hydrochloride]
[1]
  permeability: high permeability
[2]
  solubility in water: highly soluble
